Reference: patent publication US9943506B2, “BCL6 inhibitors as anticancer agents” (Cornell University, priority 2013, dated 2018)
Read-outs that look alike come from different tables or passages of the source.

How the values were obtained:
Format in all cases: cell-based
SUDHL6 DLBCL cells = experiment: Growth inhibition of DLBCL cells, SUDHL6; conditions: Homo sapiens, SU-DHL-6
Description: (§1) 50,000 cells per well were treated for 48 hours with different concentrations of the compounds in 96 well plates, using DMSO as a control. Then, viability was determined with Cell Titer Blue™ (Promega) and growth inhibition was calculated as the percentage of viable cells with respect to cells treated with DMSO alone. GI50 values were determined by dose-response curves.
(§2) 293T cells were grown in Dulbecco's modified Eagles medium supplemented with 10% fetal bovine serum (FBS) (Gemini Bio-Products, Woodland, Calif.) and 1% penicillin-streptomycin. DLBCL cell lines OCI-Ly1, OCI-Ly1-B50, OCI-Ly7, OCI-Ly10 and OCI-Ly19 were grown in 80% Iscove's medium, 20% FBS and penicillin G/streptomycin. DLBCL cell lines Toledo, Farage, SU-DHL4, DOHH-2, SC-1, RCK8, TMD8, HBL-1, Ly3, Karpas 422 and SU-DHL6 were cultured in 90% RPMI medium, 10% FBS, 2 mM glutamine, 10 mM Hepes and penicillin G/streptomycin. All cell lines were cultured at 37° C. in a humidified atmosphere of 5% CO2.

WSU-DLCL2 DLBCL cells = experiment: Growth inhibition of DLBCL cells, WSU-DLCL2; conditions: Homo sapiens, WSUDLCL2
Description: as §1

Karpas 422 DLBCL cells = experiment: Growth inhibition of DLBCL cells, Karpas 422; conditions: Homo sapiens
Description: as §1, §2

Ly3 DLBCL cells = experiment: Growth inhibition of DLBCL cells, Ly3
Description: as §1, §2

Toledo DLBCL cells = experiment: Growth inhibition of DLBCL cells, Toledo; conditions: Homo sapiens
Description: as §1, §2

Ly7 DLBCL cells = experiment: Growth inhibition of DLBCL cells, Ly7
Description: as §1, §2

Ly1 DLBCL cells = experiment: Growth inhibition of DLBCL cells, Ly1; conditions: Table 4; Bcl6 dependent; read-out: GI 50 Ly1
Description: as §1, §2

Ly1B50 DLBCL cells = experiment: Growth inhibition of DLBCL cells, Ly1B50
Description: as §1, §2

Ly10 DLBCL cells = experiment: Growth inhibition of DLBCL cells, Ly10; conditions: Table 2, BCL-6 dependent, 48 hours
Description: as §1, §2

[1] = Table 4, Bcl6 dependent, read-out: GI 50 SUDHL6
[2] = Table 4, Bcl6 independent, read-out: GI 50 WSUDLCL2
[3] = Table 4, Bcl6 independent, read-out: GI 50 K422
[4] = Table 4, Bcl6 dependent, read-out: GI 50 Ly3
[5] = Table 4, Bcl6 independent, read-out: GI 50 Toledo
[6] = Table 4, Bcl6 dependent, read-out: GI 50 Ly7
[7] = Table 4, Bcl6 independent, read-out: GI 50 Ly1B50
[8] = Table 2, BCL-6 dependent, 48 hours, read-out: GI50 SUDH6
[9] = Table 2, BCL-6 independent, 48 hours, read-out: GI50 Karpas 422
[10] = Table 2, BCL-6 dependent, 48 hours
[11] = 48 h, Table 2, BCL-6 independent
[12] = Table 2, BCL-6 independent, 48 hours
[13] = Table 7, BCL6 dependent, read-out: GI50 SUDHL6
[14] = Table 8, Bcl-6 dependent, read-out: GI50 SUDH6
[15] = Table 8, Bcl-6 independent, read-out: GI50 Karpas 422

Measured: GI50

Cc1cccc(COC(=O)CN2C(=O)/C(=C3\SC(=S)N(CCC(=O)O)C3=O)c3cc(Cl)ccc32)c1 [Compound 374]
48 ± 17 µM: SUDHL6 DLBCL cells; [1]
> 125 µM: Karpas 422 DLBCL cells; [3] | Ly3 DLBCL cells; [4] | Toledo DLBCL cells; [5] | Ly7 DLBCL cells; [6] | Ly1 DLBCL cells | Ly1B50 DLBCL cells; [7]
99 ± 20 µM: WSU-DLCL2 DLBCL cells; [2]

O=C(O)CCN1C(=O)/C(=C2/C(=O)N(CC(=O)OCc3ccc(C(F)(F)F)cc3)c3ccc(Cl)cc32)SC1=S [Compound 375]
> 125 µM: WSU-DLCL2 DLBCL cells; [2] | Karpas 422 DLBCL cells; [3] | Ly3 DLBCL cells; [4] | Toledo DLBCL cells; [5] | Ly7 DLBCL cells; [6] | Ly1 DLBCL cells | Ly1B50 DLBCL cells; [7]
29 ± 14 µM: SUDHL6 DLBCL cells; [1]

O=C(O)CCN1C(=O)/C(=C2/C(=O)N(CC(=O)OCc3ccc(F)cc3)c3ccc(Cl)cc32)SC1=S [Compound 377]
104 µM: SUDHL6 DLBCL cells; [1]
> 125 µM: WSU-DLCL2 DLBCL cells; [2] | Karpas 422 DLBCL cells; [3] | Ly3 DLBCL cells; [4] | Toledo DLBCL cells; [5] | Ly7 DLBCL cells; [6] | Ly1 DLBCL cells | Ly1B50 DLBCL cells; [7]

O=C(O)CCN1C(=O)/C(=C2/C(=O)N(CC(=O)OCc3cccc(F)c3)c3ccc(Cl)cc32)SC1=S [Compound 378]
> 125 µM: WSU-DLCL2 DLBCL cells; [2] | Karpas 422 DLBCL cells; [3] | Ly3 DLBCL cells; [4] | Toledo DLBCL cells; [5] | Ly7 DLBCL cells; [6] | Ly1 DLBCL cells | Ly1B50 DLBCL cells; [7]
53.4 µM: SUDHL6 DLBCL cells; [1]

O=C(O)CCN1C(=O)/C(=C2/C(=O)N(CC(=O)OCc3cccc(C(F)(F)F)c3)c3ccc(Cl)cc32)SC1=S [Compound 380]
67 ± 12 µM: WSU-DLCL2 DLBCL cells; [2]
106 ± 20 µM: Ly1 DLBCL cells
68 µM: Ly1B50 DLBCL cells; [7]
94 ± 19 µM: Ly7 DLBCL cells; [6]
93 ± 23 µM: Toledo DLBCL cells; [5]
18 ± 7 µM: SUDHL6 DLBCL cells; [1]
71 ± 18 µM: Ly3 DLBCL cells; [4]
69 ± 4 µM: Karpas 422 DLBCL cells; [3]

C[C@@H](OC(=O)CN1C(=O)/C(=C2\SC(=S)N(CCC(=O)O)C2=O)c2cc(Cl)ccc21)c1ccccc1 [Compound 381]
> 125 µM: WSU-DLCL2 DLBCL cells; [2] | Karpas 422 DLBCL cells; [3] | Ly3 DLBCL cells; [4] | Toledo DLBCL cells; [5] | Ly7 DLBCL cells; [6] | Ly1 DLBCL cells | Ly1B50 DLBCL cells; [7]
22 ± 8 µM: SUDHL6 DLBCL cells; [1]

O=C(O)CN1C(=O)/C(=C2/C(=O)Nc3ccc(Cl)cc32)SC1=S [Compound 2031, (Z)-2-(5-(5-Chloro-2-oxoindolin-3-ylidene)-4-oxo-2-thioxothiazolidin-3-yl)acetic acid]
> 40 µM: SUDHL6 DLBCL cells; [8] | Ly10 DLBCL cells | Karpas 422 DLBCL cells; [9] | Ly3 DLBCL cells; [10] | Toledo DLBCL cells; [11] | Ly7 DLBCL cells; 48 h, Table 2, BCL-6 dependent | Ly1B50 DLBCL cells; [12]

O=C(O)CN1C(=O)/C(=C2/C(=O)Nc3ccc(F)cc32)SC1=S [Compound 2033, (Z)-2-(5-(5-Fluoro-2-oxoindolin-3-ylidene)-4-oxo-2-thioxothiazolidin-3-yl)acetic acid]
> 40 µM: SUDHL6 DLBCL cells; [8] | Ly10 DLBCL cells | Karpas 422 DLBCL cells; [9] | Ly3 DLBCL cells; [10] | Toledo DLBCL cells; [11] | Ly7 DLBCL cells; 48 h, Table 2, BCL-6 dependent | Ly1B50 DLBCL cells; [12]

O=C(O)CN1C(=O)/C(=C2/C(=O)Nc3c(F)cccc32)SC1=S [Compound 2035, (Z)-2-(5-(7-Fluoro-2-oxoindolin-3-ylidene)-4-oxo-2-thioxothiazolidin-3-yl)acetic acid]
> 40 µM: SUDHL6 DLBCL cells; [8] | Ly10 DLBCL cells | Karpas 422 DLBCL cells; [9] | Ly3 DLBCL cells; [10] | Toledo DLBCL cells; [11] | Ly7 DLBCL cells; 48 h, Table 2, BCL-6 dependent | Ly1B50 DLBCL cells; [12]

O=C(O)CN1C(=O)/C(=C2/C(=O)Nc3c(Cl)cccc32)SC1=S [Compound 2037, (Z)-2-(5-(7-Chloro-2-oxoindolin-3-ylidene)-4-oxo-2-thioxothiazolidin-3-yl)acetic acid]
> 40 µM: SUDHL6 DLBCL cells; [8] | Ly10 DLBCL cells | Karpas 422 DLBCL cells; [9] | Ly3 DLBCL cells; [10] | Toledo DLBCL cells; [11] | Ly7 DLBCL cells; 48 h, Table 2, BCL-6 dependent | Ly1B50 DLBCL cells; [12]

O=C(O)CN1C(=O)/C(=C2/C(=O)Nc3c(Cl)cc(Cl)cc32)SC1=S [Compound 2039, (Z)-2-(5-(5,7-Dichloro-2-oxoindolin-3-ylidene)-4-oxo-2-thioxothiazolidin-3-yl)acetic acid]
> 40 µM: SUDHL6 DLBCL cells; [8] | Ly10 DLBCL cells | Karpas 422 DLBCL cells; [9] | Ly3 DLBCL cells; [10] | Toledo DLBCL cells; [11] | Ly7 DLBCL cells; 48 h, Table 2, BCL-6 dependent | Ly1B50 DLBCL cells; [12]

O=C(O)CN1C(=O)/C(=C2/C(=O)Nc3ccc(Br)cc32)SC1=S [Compound 2041, (Z)-2-(5-(5-Bromo-2-oxoindolin-3-ylidene)-4-oxo-2-thioxothiazolidin-3-yl)acetic acid]
> 40 µM: SUDHL6 DLBCL cells; [8] | Ly10 DLBCL cells | Karpas 422 DLBCL cells; [9] | Ly3 DLBCL cells; [10] | Toledo DLBCL cells; [11] | Ly7 DLBCL cells; 48 h, Table 2, BCL-6 dependent | Ly1B50 DLBCL cells; [12]

O=C(CN1C(=O)C(=O)c2cc(Cl)ccc21)OCc1ccccc1 [Compound 2071]
> 125 µM: Toledo DLBCL cells; Table 7, BCL6 independent
53 µM: Ly7 DLBCL cells; Table 7, BCL6 dependent
10 ± 1 µM: SUDHL6 DLBCL cells; [14]
35 µM: SUDHL6 DLBCL cells; [13]
> 40 µM: WSU-DLCL2 DLBCL cells; Table 8, Bcl-6 independent | Karpas 422 DLBCL cells; [15] | Ly3 DLBCL cells; Table 8, Bcl-6 dependent | Toledo DLBCL cells; Table 8, Bcl-6 independent
26 ± 1 µM: Ly7 DLBCL cells; Table 8, Bcl-6 dependent

O=C(CN1C(=O)C(=O)c2cc(F)ccc21)OCc1ccccc1 [Compound 2073]
40 µM: Toledo DLBCL cells; Table 7, BCL6 independent
17 ± 1 µM: SUDHL6 DLBCL cells; [14]
30 µM: SUDHL6 DLBCL cells; [13] | Ly7 DLBCL cells; Table 7, BCL6 dependent
> 40 µM: WSU-DLCL2 DLBCL cells; Table 8, Bcl-6 independent | Karpas 422 DLBCL cells; [15] | Ly3 DLBCL cells; Table 8, Bcl-6 dependent | Toledo DLBCL cells; Table 8, Bcl-6 independent
36 ± 7 µM: Ly7 DLBCL cells; Table 8, Bcl-6 dependent

O=C(O)CCN1C(=O)/C(=C2/C(=O)N(CC(=O)OCc3ccccc3)c3ccc(F)cc32)SC1=S [Compound 2097]
> 30 µM: SUDHL6 DLBCL cells; [14] | WSU-DLCL2 DLBCL cells; Table 8, Bcl-6 independent | Karpas 422 DLBCL cells; [15] | Ly3 DLBCL cells; Table 8, Bcl-6 dependent | Toledo DLBCL cells; Table 8, Bcl-6 independent | Ly7 DLBCL cells; Table 8, Bcl-6 dependent

O=C(O)CCN1C(=O)/C(=C2/C(=O)N(CC(=O)OCc3ccccc3)c3ccc(Br)cc32)SC1=S [Compound 2101]
> 30 µM: SUDHL6 DLBCL cells; [14] | WSU-DLCL2 DLBCL cells; Table 8, Bcl-6 independent | Karpas 422 DLBCL cells; [15] | Ly3 DLBCL cells; Table 8, Bcl-6 dependent | Toledo DLBCL cells; Table 8, Bcl-6 independent | Ly7 DLBCL cells; Table 8, Bcl-6 dependent
